The values below come from patent US10494397B2, “Rebaudioside analogs” (PepsiCo, Inc., priority 2016, dated 2019).

What all share (format): in vivo, human
Assay [1] relates to Trained Sensory panelists. Nature of the assay: Sucrose Equivalence Value, paired comparison with 1.5% sucrose. The following applies: 25 ppm in aqueous phosphoric acid (pH 3.1), room temperature; p<0.0001. The text has this:
(§1) Trained Sensory panelists (n=25, 3 evaluations each) evaluated Reb B Galactoside in aqueous phosphoric acid (pH 3.1) at room temperature. Rebaudioside B galactoside is not currently approved for use in food or beverages in the United States. Therefore, every person who tasted the samples signed an informed consent form provided by PepsiCo Scientific Affairs before tasting samples. Participation in the tests was completely voluntary. Panelists who chose to participate could choose to stop participation at any time. In order for a test ingredient to be considered an enhancer, it must not be considered a sweetener.

The test system of assay [2] is Tasters. The experiment in a line: Sensory evaluation of test material as a sweetener (taster panel, scale of 1 to 10). Also on record: key: not observed or only minimally observed (−); highly observed (+++). From the text:
Sample preparation protocol for testing material as a sweetener: Tasters wore noseclips and were blinded to the identity of the test material. Tasters sampled 400 ppm Rebaudioside A and 6.5 Brix sucrose prior to the test material. Reb A 400 ppm was assigned a 5 on the scale of 1 to 10 as shown in FIG. 8 and sucrose (6.5%) was assigned a 10 on the same scale. Tasters were asked to rinse their mouths 5 times with water between tasting each sample. Tasters were then given the test article and asked to rank the test article for sweetness on the noted scale. Tasters were also asked to provide comments about bitterness, linger, flavors, and any other perceptions.
Numerical scores from all tasters were averaged and, taken together with comments regarding sweet quality, bitterness and off-tastes, converted into the symbols “−,” “+,” “++,” and “+++” to indicate whether a given characteristic was not observed or only minimally observed (−) or highly observed (+++). For example, a sample having a “−” in both sweet intensity and bitterness should be understood as a sample having minimal or no sweetness and minimal or no bitter flavor. By contrast, a sample having a “+++” in both sweet intensity and bitterness should be understood as a sample having highly observed sweet intensity and bitterness.
Preparation of Reb A in this experiment: Prepare 400 ppm Reb A in water (pH=7): 40 mg of Rebaudioside A was dissolved with stirring in 100 ml of water at room temperature.
Preparation of Sucrose in this experiment: Prepare 6.5% Sucrose in water (pH=7): weight 6.5 gr of Sucrose and dissolve it in 93.5 gr water (total 100 gr)
• Sweet quality was based upon a temporal profile (sweet onset, linger) and attributes such as syrupy, round, clean.

The subject of assay [3] is Trained Sensory panelists. The experiment in a line: Sweet enhancement ranking test (4 samples ranked from least sweet to most sweet).
Description: as §1, with “Panelists were asked” for “In order for a test ingredient”, “rank 4 samples from least sweet to most sweet, with 1=least sweet and 4=most sweet As shown in FIGS. 1-3, Enhancement of Reb A, high-fructose corn syrup and sucrose were observed.” for “be considered an enhancer, it must not be considered a sweetener.”

For `C=C1C[C@@]23CC[C@H]4[C@@](C)(CCC[C@@]4(C)C(=O)O[C@@H]4O[C@H](CO)[C@H](O)[C@H](O)[C@H]4O)[C@@H]2CC[C@]1(O[C@@H]1O[C@H](CO)[C@@H](O)[C@H](O[C@@H]2O[C@H](CO)[C@@H](O)[C@H](O)[C@H]2O)[C@H]1O[C@@H]1O[C@H](CO)[C@@H](O)[C@H](O)[C@H]1O)C3` [Compound 7D, Rebaudioside B Galactoside], the “Sucrose Equivalence Value (sweetness compared with 1.5% sucrose)” value in assay [1] was under 1.5 % sucrose. Further, in assay [2] (averaged taster scores, scale 1 to 10 with Reb A 400 ppm = 5 and sucrose 6.5% = 10, noseclips, blinded), the “Sweet Intensity” value was “+++”. Besides, in assay [2] (taster comments and scores converted into symbols), the Bitterness entry was “−”. Moreover, in assay [3] (25 ppm added to HFCS, FIG. 2), the “Enhancement of sweetness of High-Fructose Corn Syrup (HFCS)” value was “enhances the sweetness”. Also, in assay [3] (25 ppm added to Rebaudioside A, FIG. 1), the “Enhancement of sweetness of Rebaudioside A” value is reported as “enhances the sweetness”. Moreover, in assay [3] (25 ppm added to sucrose, FIG. 3), the “Enhancement of sweetness of sucrose” value is reported as “enhances the sweetness”.
